Reference: the Kinase Knowledgebase extract (Sharma et al. 2016)

Target: CDK2 (UniProt P24941)
Assay: Enzyme Assay

Compound	IC50
CN(C)C(=O)N1CCn2cc(C3=C(c4cncc5ccoc45)C(=O)NC3=O)c3cccc(c32)C1	15.6 nM
CC(=O)N1CCn2cc(C3=C(c4cncc5ccoc45)C(=O)NC3=O)c3cccc(c32)C1	8.1 nM
CC(=O)N1CCn2cc(C3=C(c4cccc5c4OCC5)C(=O)NC3=O)c3cccc(c32)C1	17.6 nM
O=C1NC(=O)C(c2cccc3ccoc23)=C1c1cn2c3c(cccc13)CNCC2	10.2 nM
O=C1NC(=O)C(c2cn3c4c(cccc24)CNCC3)=C1c1cccc2c1OCC2	33 nM
O=C1NC(=O)C(c2cnc3cccnn23)=C1c1cn2c3c(cccc13)CN(C(=O)N1CCCCC1)CC2	434 nM
CN(C)C(=O)N1CCn2cc(C3=C(c4cnn5ccccc45)C(=O)NC3=O)c3cccc(c32)C1	2200 nM
O=C1NC(=O)C(c2cn3c4c(cccc24)CNCC3)=C1c1ccc2c(c1)OCO2	1130 nM
Cn1ccc2c(C3=C(c4cn5c6c(cccc46)CNCC5)C(=O)NC3=O)cccc21	363 nM
O=C1NC(=O)C(c2cnc3ccncn23)=C1c1cn2c3c(cccc13)CN(C(=O)N1CCOCC1)CC2	> 20000 nM
O=C1NC(=O)C(c2cn3c4c(cccc24)CNCC3)=C1c1cccc2occc12	205 nM
O=C1NC(=O)C(c2cnc3ccccn23)=C1c1cn2c3c(cccc13)CN(C(=O)C1CCOCC1)CC2	5500 nM
CCC(=O)N1CCn2cc(C3=C(c4cncc5ccoc45)C(=O)NC3=O)c3cccc(c32)C1	13 nM
O=C1NC(=O)C(c2cnn3ccccc23)=C1c1cn2c3c(cccc13)CN(C(=O)N1CCOCC1)CC2	3030 nM
O=C1NC(=O)C(c2cn3c4c(cccc24)CNCC3)=C1c1cccc2c1ccn2CCCO	297 nM
O=C1NC(=O)C(c2cnc3cccnn23)=C1c1cn2c3c(cccc13)CNCC2	67.2 nM
O=C1NC(=O)C(c2cnc3cnccn23)=C1c1cn2c3c(cccc13)CN(C(=O)N1CCOCC1)CC2	> 20200 nM
CC(=O)N1CCn2cc(C3=C(c4cccc5ccoc45)C(=O)NC3=O)c3cccc(c32)C1	10.5 nM
O=C1NC(=O)C(c2cnc3ncccn23)=C1c1cn2c3c(cccc13)CN(C(=O)N1CCCCC1)CC2	> 20000 nM

Compound	IC50
O=C1NC(=O)C(c2cnc3ncccn23)=C1c1cn2c3c(cccc13)CN(C(=O)N1CCOCC1)CC2	> 20100 nM
O=C1NC(=O)C(c2cccc3ccsc23)=C1c1cn2c3c(cccc13)CNCC2	90 nM
O=C1NC(=O)C(c2cnc3ccncn23)=C1c1cn2c3c(cccc13)CNCC2	7590 nM
O=C1NC(=O)C(c2cncc3ccoc23)=C1c1cn2c3c(cccc13)CN(C(=O)N1CCCCC1)CC2	35.7 nM
CC(=O)N1CCn2cc(C3=C(c4cnc5ccccn45)C(=O)NC3=O)c3cccc(c32)C1	629 nM
CC(=O)N1CCn2cc(C3=C(c4cccc5c4OCO5)C(=O)NC3=O)c3cccc(c32)C1	60 nM
O=C1NC(=O)C(c2cnc3ccccn23)=C1c1cn2c3c(cccc13)CNCC2	756 nM
CN(C)C(=O)N1CCn2cc(C3=C(c4cccc5c4OCO5)C(=O)NC3=O)c3cccc(c32)C1	445 nM
CC(C)C(=O)N1CCn2cc(C3=C(c4cnc5ccccn45)C(=O)NC3=O)c3cccc(c32)C1	3560 nM
O=C1NC(=O)C(c2cn3c4c(cccc24)CNCC3)=C1c1cccc2c1OCO2	91 nM
O=C1NC(=O)C(c2cnc3cnccn23)=C1c1cn2c3c(cccc13)CNCC2	5580 nM
O=C1NC(=O)C(c2cnn3ccccc23)=C1c1cn2c3c(cccc13)CNCC2	750 nM
O=C1NC(=O)C(c2cnc3ncccn23)=C1c1cn2c3c(cccc13)CNCC2	8760 nM
O=C1NC(=O)C(c2cncc3ccoc23)=C1c1cn2c3c(cccc13)CN(C(=O)N1CCOCC1)CC2	39.2 nM
O=C1NC(=O)C(c2cncc3ccoc23)=C1c1cn2c3c(cccc13)CNCC2	6.4 nM
CC(C)C(=O)N1CCn2cc(C3=C(c4cnn5ccccc45)C(=O)NC3=O)c3cccc(c32)C1	1630 nM
CN(C)C(=O)N1CCn2cc(C3=C(c4cccc5ccoc45)C(=O)NC3=O)c3cccc(c32)C1	67.5 nM
CC(=O)N1CCn2cc(C3=C(c4cccc5ccsc45)C(=O)NC3=O)c3cccc(c32)C1	76 nM
O=C1NC(=O)C(c2cnc3cnccn23)=C1c1cn2c3c(cccc13)CN(C(=O)N1CCCCC1)CC2	> 20000 nM
